Assays:
[1] = UPLC-MS/MS pharmacokinetic analyses in tumour, liver and plasma; assay type: in vivo, BALB/c nude mice; settings: within 1 h after i.v. 50 mg kg^−1 2
Description: For in vivo prodrug activation, mice received an i.v. injection of 50 mg kg^−1 2 and a subsequent 30 mg kg^−1 TCO-Dox after a 2-h interval. After different time intervals, blood samples were collected from the tail veins, and then, the tumours and livers were harvested for UPLC-MS/MS analysis.
UPLC-MS/MS analyses: UPLC-MS/MS metabolomic analyses were performed using a
multiple reaction-monitoring mode (MRM). Data acquisition and processing were performed using LabSolutions version 5 software. Measurements were carried out at
Dox, solvent A consisted of 0.1% formic acid in water and solvent B consisted of 0.1% formic acid in mass spectrometric grade acetonitrile; (2) for compound TCO-Dox, solvent A consisted of 100% water and solvent B consisted of 100% mass spectrometric grade acetonitrile. Injection volume was 2 or 10 L. The mass spectrometer was interfaced with the liquid chromatograph using an electrospray ion source. The nitrogen nebulizing gas flow was set at 10 L min-1 and the drying gas flow at 15 mL min-1. 4500 V were used for the interface voltage. The temperature of the block heater was maintained at 400 °C and the one of the desolvation line at 250 °C. The MRM transitions were
Dox. The collision gas used was argon at 230 kPa. The dwell time was set to 100 msec and the pause time to 3 msec.
Sample preparation: blood samples were collected from the tail vein of mice. Plasma […]

[2] = Self-assembly and hydrogelation on addition of alkaline phosphatase (ALP); assay type: physicochemical; settings: after addition of 10 U mL^−1 ALP (dephosphorylated product)
Description: The synthesis of the assembly precursor (NapK(Tz)YpF, 2, Fig. 2a) was straightforward (see Supplementary Methods for a detailed protocol). Because KYF was determined to be an excellent self-assembly motif in a tri-peptide census survey, we constructed our assembling molecules based on this sequence. The conjugation of a strong π–π stacking moiety, namely, a naphthalene group, to the N terminus may further enhance the self-assembly potential of this molecule. Phosphorylation on tyrosine (Y) enabled the responsiveness of this motif to phosphatase. All of these components were sequentially conjugated via typical Fmoc-based solid-phase peptide synthesis (SPPS) to yield NapKYpF (1). The capability of self-assembly and hydrogelation of 1 was confirmed by the addition of 10 U mL^−1 alkaline phosphatase (ALP) into a solution of 1 (Supplementary Fig. 1). The dephosphorylated product of 1 formed transparent hydrogels with a network of uniform nanofibres (Supplementary Fig. 2), and the critical hydrogelation concentration was 1.0 mg mL^−1. The ε-amine of Lys on 1 was conjugated with the Tz derivative Tz-COOH (2-(4-(6-methyl-1,2,4,5-tetrazin-3-yl)phenyl) acetic acid) via an NHS-mediated ester–amide exchange reaction to yield 2. […] Upon the addition of ALP (10 U mL^−1) into the solution of 2, a transparent purple hydrogel was formed within 1 h (Fig. 2b inset), and the critical hydrogelation concentration was 1.0 mg mL^−1 (Supplementary Fig. 3). Similar to the formation of a typical hydrogel, investigation by transmission electron microscopy (TEM) confirmed the existence of numerous uniform nanofibres, each with a diameter of approximately 12 nm, which was close to that of hydrogel 1 (Fig. 2b).

HeLa cells = assay: Intracellular Tz accumulation by fluorescence liberation from TCO-CMR, HeLa cells; assay type: cell-based; settings: 50 or 500 μM Tz-COOH for 6 h, then 50 μM TCO-CMR 1-24 h
Description: Next, we tested the intracellular accumulation of Tz via EISA in an attempt to differentiate cancer cells from normal cells. First, we investigated the accumulation of Tz in HeLa cells and HUVECs over time via fluorescence liberation from TCO-CMR (Fig. 3a). […] The cells were then washed with PBS thoroughly before the addition of an excessive amount of TCO-CMR (100 μL, 50 μM), and the reaction of TCO-CMR with the intracellular accumulated Tz was allowed to proceed for up to 24 h (Supplementary Fig. 8). In this experimental setting, the total liberated fluorescence was proportional to the amount of 3 accumulated inside the cells. […] Therefore, the optimized concentration of 2 (e.g. 500 μM) and incubation time (e.g. 6 h) were selected to differentiate between cancer and normal cells according to liberated fluorescence intensity (Fig. 3c). This differentiation was dependent on the considerably different phosphatase activity between these cell lines (Supplementary Fig. 11), allowing EISA to specifically occur in cancer cells as opposed to normal cells.
All cells were purchased from the National Infrastructure of Cell Line Resource (Beijing, China). HeLa cells, HUVECs and CCC-HEH-2 cells were cultured in a humidified CO2 (5%) incubator at 37 °C in DMEM supplemented with 10% foetal bovine serum (FBS, Gibco) and 1% Pen Strep (PS, Gibco). Saos-2 cells were cultured in a humidified CO2 (5%) incubator at 37 °C in McCoy’s 5A medium supplemented with 10% FBS and 1% PS. Cells were plated in flat-bottom 96-well plates (Corning) at a density of 10^4 cells per well and allowed to attach for 12 h. Then, the culture medium was replaced with 100 μL of pre-warmed medium containing 2 at different concentrations (100–500 μM). After incubation for different durations (1–24 h), the cells were rinsed with PBS, and then 100 μL of 50 μM TCO-CMR (dissolved in PBS) was added for real-time detection of the fluorescence intensity of coumarin in a plate reader (Perkin Elmer).

Cc1nnc(-c2ccc(CC(=O)NCCCCC(NC(=O)Cc3ccc4ccccc4c3)C(=O)NC(Cc3ccc(O)cc3)C(=O)NC(Cc3ccccc3)C(=O)O)cc2)nn1 (stereo not drawn) [compound 3, NapK(Tz)YF]
concentration in tumours [1]: increased significantly within 1 h

NCCCCC(NC(=O)Cc1ccc2ccccc2c1)C(=O)NC(Cc1ccc(OP(=O)(O)O)cc1)C(=O)NC(Cc1ccccc1)C(=O)O (stereo not drawn) [compound 1, NapKYpF]
critical hydrogelation concentration [2]: 1.0 mg/mL

Cc1nnc(-c2ccc(CC(=O)O)cc2)nn1 [Tz-COOH, 2-(4-(6-methyl-1,2,4,5-tetrazin-3-yl)phenyl) acetic acid, reference compound]
accumulation in HeLa cells (HeLa cells): hardly accumulated
